According to the supplement of paper PMC11061612:

Legend:
Capivasertib = compound: C1CN(CCC1(C(=O)N[C@@H](CCO)C2=CC=C(C=C2)Cl)N)C3=NC=NC4=C3C=CN4 [Capivasertib]; settings: max 10 µM
How it was run: (§1)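 Cancer cell lines were plated in 1536-well plates in 7.5 μl of DMEM/F12 or RPMI with 10% FBS and kept 24 hours at 37°C and 5% CO2 before 72 hours of dosing, with final DMSO typically 0.2%. CellTiter-Glo 2.0 luminescence measured viability, scaled between blank-well and DMSO-well means. Dose responses were fitted to a two-parameter logistic curve with a non-linear mixed effects model. This fit gives the single-agent IC50.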

AZD1775 = compound: C=CCn1c(=O)c2cnc(Nc3ccc(N4CCN(C)CC4)cc3)nc2n1-c1cccc(C(C)(C)O)n1 [AZD1775]; settings: max 3 µM
How it was run: as §1

Trametinib = compound: CC(=O)Nc1cccc(-n2c(=O)n(C3CC3)c(=O)c3c(Nc4ccc(I)cc4F)n(C)c(=O)c(C)c32)c1 [Trametinib]; settings: max 1 µM
How it was run: as §1

Palbociclib = compound: CC(=O)c1c(C)c2cnc(Nc3ccc(N4CCNCC4)cn3)nc2n(C2CCCC2)c1=O [Palbociclib]; settings: max 10 µM
How it was run: as §1

AZD1390 = compound: CC(C)n1c(=O)n(C)c2cnc3cc(F)c(-c4ccc(OCCCN5CCCCC5)nc4)cc3c21 [AZD1390]; settings: max 0.3 µM
How it was run: as §1

Venetoclax = compound: CC1(C)CCC(CN2CCN(c3ccc(C(=O)NS(=O)(=O)c4ccc(NCC5CCOCC5)c([N+](=O)[O-])c4)c(Oc4cnc5[nH]ccc5c4)c3)CC2)=C(c2ccc(Cl)cc2)C1 [Venetoclax]; settings: max 1 µM
How it was run: as §1

Dasatinib = compound: CC1=C(C(=CC=C1)Cl)NC(=O)C2=CN=C(S2)NC3=CC(=NC(=N3)C)N4CCN(CC4)CCO [Dasatinib]; settings: max 2 µM
How it was run: as §1

SG3199 = compound: CC1=CN2[C@@H](C1)C=NC3=CC(=C(C=C3C2=O)OC)OCCCCCOC4=C(C=C5C(=C4)N=C[C@@H]6CC(=CN6C5=O)C)OC [SG3199]; settings: max 0.001 µM
How it was run: as §1

AZD2811 = compound: CCN(CCO)CCCOc1ccc2c(Nc3cc(CC(=O)Nc4cccc(F)c4)[nH]n3)ncnc2c1 [AZD2811]; settings: max 1 µM
How it was run: as §1

SN-38 = compound: CCc1c2c(nc3ccc(O)cc13)-c1cc3c(c(=O)n1C2)COC(=O)[C@]3(O)CC [SN-38]; settings: max 0.3 µM
How it was run: as §1

AZD0156 = compound: CN(C)CCCOc1ccc(-c2ccc3ncc4c(c3c2)n(C2CCOCC2)c(=O)n4C)cn1 [AZD0156]; settings: max 3 µM
How it was run: as §1

AZD4320 = compound: CN(CC[C@H](CSC1=CC=CC=C1)NC2=C(C=C(C=C2)S(=O)(=O)NC(=O)C3=CC=C(C=C3)N4CCC(CC4)[C@H](C5=CC=CC=C5C6=CC=C(C=C6)Cl)O)S(=O)(=O)C(F)(F)F)CCO [AZD4320]; settings: max 1 µM
How it was run: as §1

Alisertib = compound: COc1cc(Nc2ncc3c(n2)-c2ccc(Cl)cc2C(c2c(F)cccc2OC)=NC3)ccc1C(=O)O [Alisertib]; settings: max 10 µM
How it was run: as §1

Gefitinib = compound: COc1cc2ncnc(Nc3ccc(F)c(Cl)c3)c2cc1OCCCN1CCOCC1 [Gefitinib]; settings: max 10 µM
How it was run: as §1

Prexasertib = compound: COc1cccc(OCCCN)c1-c1cc(Nc2cnc(C#N)cn2)n[nH]1 [Prexasertib]; settings: max 1 µM
How it was run: as §1

Doxorubicin = compound: COc1cccc2c1C(=O)c1c(O)c3c(c(O)c1C2=O)C[C@@](O)(C(=O)CO)C[C@@H]3O[C@H]1C[C@H](N)[C@H](O)[C@H](C)O1 [Doxorubicin]; settings: max 1 µM
How it was run: as §1

AZD5153 = compound: COc1nnc2ccc(N3CCC(c4ccc(OCCN5CCN(C)C(=O)[C@H]5C)cc4)CC3)nn12 [AZD5153]; settings: max 1 µM
How it was run: as §1

Lapatinib = compound: CS(=O)(=O)CCNCc1ccc(-c2ccc3ncnc(Nc4ccc(OCc5cccc(F)c5)c(Cl)c4)c3c2)o1 [Lapatinib]; settings: max 10 µM
How it was run: as §1

AZD8186 = compound: C[C@@H](Nc1cc(F)cc(F)c1)c1cc(C(=O)N(C)C)cc2c(=O)cc(N3CCOCC3)oc12 [AZD8186]; settings: max 3 µM
How it was run: as §1

Crizotinib = compound: C[C@@H](Oc1cc(-c2cnn(C3CCNCC3)c2)cnc1N)c1c(Cl)ccc(F)c1Cl [Crizotinib]; settings: max 10 µM
How it was run: as §1

Savolitinib = compound: C[C@@H](c1ccc2nccn2c1)n1nnc2ncc(-c3cnn(C)c3)nc21 [Savolitinib]; settings: max 1 µM
How it was run: as §1

AZD6738 = compound: C[C@@H]1COCCN1C2=NC(=NC(=C2)C3(CC3)[S@](=N)(=O)C)C4=C5C=CNC5=NC=C4 [AZD6738]; settings: max 10 µM
How it was run: as §1

AZD5991 = compound: Cc1c2c(nn1C)CSCc1cc(n(C)n1)CSc1cc(c3ccccc3c1)OCCCc1c(C(=O)O)n(C)c3c-2c(Cl)ccc13 [AZD5991]; settings: max 1 µM
How it was run: as §1

AZD7648 = compound: Cc1cc2ncnn2cc1Nc1ncc2c(n1)n(C1CCOCC1)c(=O)n2C [AZD7648]; settings: max 10 µM
How it was run: as §1

Taselisib = compound: Cc1nc(-c2cn3c(n2)-c2ccc(-c4cnn(C(C)(C)C(N)=O)c4)cc2OCC3)n(C(C)C)n1 [Taselisib]; settings: max 10 µM
How it was run: as §1

Selumetinib = compound: Cn1cnc2c(F)c(Nc3ccc(Br)cc3Cl)c(C(=O)NOCCO)cc21 [Selumetinib]; settings: max 10 µM
How it was run: as §1

Olaparib = compound: O=C(c1cc(Cc2n[nH]c(=O)c3ccccc23)ccc1F)N1CCN(C(=O)C2CC2)CC1 [Olaparib]; settings: max 10 µM
How it was run: as §1

Row | Cell Line | IC50, cell viability 72 h (Capivasertib) [µM] | IC50, cell viability 72 h (AZD1775) [nM] | IC50, cell viability 72 h (Trametinib) [nM] | IC50, cell viability 72 h (Palbociclib) [µM] | IC50, cell viability 72 h (AZD1390) [nM] | IC50, cell viability 72 h (Venetoclax) [nM] | IC50, cell viability 72 h (Dasatinib) [nM] | IC50, cell viability 72 h (SG3199) [nM] | IC50, cell viability 72 h (AZD2811) [nM] | IC50, cell viability 72 h (SN-38) [nM] | IC50, cell viability 72 h (AZD0156) [nM] | IC50, cell viability 72 h (AZD4320) [nM] | IC50, cell viability 72 h (Alisertib) [µM] | IC50, cell viability 72 h (Gefitinib) [µM] | IC50, cell viability 72 h (Prexasertib) [nM] | IC50, cell viability 72 h (Doxorubicin) [nM] | IC50, cell viability 72 h (AZD5153) [nM] | IC50, cell viability 72 h (Lapatinib) [µM] | IC50, cell viability 72 h (AZD8186) [nM] | IC50, cell viability 72 h (Crizotinib) [µM] | IC50, cell viability 72 h (Savolitinib) [nM] | IC50, cell viability 72 h (AZD6738) [µM] | IC50, cell viability 72 h (AZD5991) [nM] | IC50, cell viability 72 h (AZD7648) [µM] | IC50, cell viability 72 h (Taselisib) [µM] | IC50, cell viability 72 h (Selumetinib) [µM] | IC50, cell viability 72 h (Olaparib) [µM]
1 | AsPC-1 (Pancreatic Carcinoma) | > 10 | > 3000 | 866 | > 10 | > 300 | > 1000 | > 2000 | > 1 | > 1000 | > 300 | > 3000 | > 1000 | > 10 | > 10 | > 1000 | > 1000 | > 1000 | > 10 | > 3000 | > 10 | > 1000 | > 10 | > 1000 | > 10 | > 10 | > 10 | > 10
2 | BALL-1 (B-Lymphoblastic Leukemia) | 7.83 | 131 | > 1000 | 1.15 | > 300 | 4.7 | > 2000 | > 1 | 865 | 1.57 | > 3000 | 5.84 | 0.0849 | > 10 | 5.12 | 123 | 59 | > 10 | > 3000 | 5.24 | > 1000 | 0.487 | > 1000 | > 10 | > 10 | > 10 | 6.29
3 | Calu-6 (Non-Small Cell Lung Carcinoma) | > 10 | 784 | 72.4 | > 10 | > 300 | > 1000 | > 2000 | > 1 | > 1000 | 93.4 | > 3000 | > 1000 | 5.69 | > 10 | 48.1 | > 1000 | > 1000 | > 10 | > 3000 | > 10 | > 1000 | 4.1 | > 1000 | > 10 | > 10 | 6.08 | > 10
